Reference: patent US8507445B2, “Compositions and methods of use of targeting peptides for diagnosis and therapy of human cancer” (Board of Regents, The University of Texas System, priority 2002, dated 2013)
“Also recorded” adds a separate entry of the source.

Assays:
prostate = assay: In vivo phage display in a human patient, tripeptide motif analysis; settings: motifs in peptides isolated from prostate, compared with unselected phage library
Source text: A large-scale preparation of a CX7C (C, cysteine; X, any amino acid residue) phage display random peptide library was optimized to create the highest possible insert diversity (Pasqualini et al., 2000). The diversity of the library was about 2×10^8 and its final titer was about 10^12 transducing units (TU)/ml. For biopanning with human subjects, use of a large-scale phage display library (diversity about 2×10^8) is advantageous compared to the smaller scale libraries used in mouse studies. Short-term intravenous infusion of the phage library (a total dose of 10^14 phage TU suspended in 100 ml of saline) into the patient was followed by multiple representative tissue biopsies. Prostate and liver samples were obtained by needle biopsy under ultrasonographic guidance. Skin, fat tissue, and skeletal muscle samples were obtained by surgical excision. Bone marrow needle aspirates and core biopsies were also obtained. Histopathological diagnosis was determined by examination of frozen sections processed from tissues obtained at the bedside.
Triplicate samples were processed for host bacterial infection, phage recovery, and histopathological analysis. In brief, tissues were weighed, ground with a glass Dounce homogenizer, suspended in 1 ml of Dulbecco Modified Eagle's medium (DMEM) containing proteinase inhibitors (DMEM-prin; 1 mM PMSF, 20 μg/ml aprotinin, and 1 μg/ml leupeptin), vortexed, and washed three times with DMEM-prin. The human tissue homogenates were incubated with 1 ml of host bacteria (log phase E. coli K91kan; OD600˜2). Aliquots of the bacterial culture were plated onto Luria-Bertani agar plates containing 40 μg/ml tetracycline and 100 μg/ml of kanamycin. Plates were incubated overnight at 37° C. Bacterial colonies were processed for sequencing of phage inserts recovered from each tissue and from unselected phage library. Human samples were handled with universal blood and body fluid precautions.
A high-throughput character pattern recognition program (M.D. Anderson Cancer Center, Biostatistics, Houston, Tex.) was developed to automate the analysis of the peptide motifs derived from phage screenings. […]
In order to identify the motifs that were enriched in the screening, the count for each tripeptide motif within each tissue was compared with the count for that tripeptide motif within the unselected library. Starting from a CX7C peptide insert, counts were recorded for all overlapping interior tripeptide motifs, subject only to reflection and single-voting restrictions. […] The significance of association of a given allocation of counts was assessed by Fisher's exact test (one-tailed). […]

MDA-MB-435 cells = assay: Enhancement of phage transduction by genotoxic agents or trans-complementation; assay type: cell-based, human; settings: cells infected with targeted phage, 72 hours post-infection; drugs 10 μM
Description: Semi-confluent MDA-MB-435 cells were infected with 10^5 TU of phage per cell for 4 hours in serum free media, after which fresh medium supplemented with FCS was added (no phage were washed out or removed). In some experiments, a phage admixture of forward and reverse clones at 10^10 TU (forward/reverse molar ratio=1) was tested. Next, cells were incubated for 36 hours followed by the addition of genotoxic drugs (topotecan, 10 μM; cisplatin, 10 μM) or administration of UV radiation (15 J/m^2) with a cross-linker apparatus (UV Stratalinker Model 2400; Stratagene). At 72 hours post-infection, the cells were analyzed for transduction of a reporter gene (β-gal or GFP), and gene expression was normalized per cell number relative to controls.

adipose tissue = assay: Validation of adipose homing phage in vivo; design: species or system obese mice; settings: mouse
Source text: A substractive phage display protocol (see Example 8 below) was used to isolate fat targeting peptides from a genetically obese mouse (Zhang et al., Nature, 372:425-432, 1994; Pelleymounter et al., Science 269:540-543, 1994). Phage that had been subjected to biopanning in obese mice were post-cleared in a normal mouse. The fat-targeting peptides isolated included TRNTGNI (SEQ ID NO:72), FDGQDRS (SEQ ID NO:73); WGPKRL (SEQ ID NO:74); WGESRL (SEQ ID NO:75); VMGSVTG (SEQ ID NO:76), KGGRAKD (SEQ ID NO:77), RGEVLWS (SEQ ID NO:78), TREVHRS (SEQ ID NO:79) and HGQGVRP (SEQ ID NO:80).
The fat homing clones selected were: FA—KGGRAKD (SEQ ID NO:77), FC—RGEVLWS (SEQ ID NO:78), FE—TREVHRS (SEQ ID NO:79) and FX—VMGSVTG (SEQ ID NO:76).

IL-11Rα = biological target: T1, IL-11Rα (Homo sapiens, UniProt Q14626); assay: Ligand-receptor binding assay in vitro with immobilized receptor; settings: for phage binding to immobilized receptor: recombinant IL-11Rα
T1 sequence (Q14626 23-422): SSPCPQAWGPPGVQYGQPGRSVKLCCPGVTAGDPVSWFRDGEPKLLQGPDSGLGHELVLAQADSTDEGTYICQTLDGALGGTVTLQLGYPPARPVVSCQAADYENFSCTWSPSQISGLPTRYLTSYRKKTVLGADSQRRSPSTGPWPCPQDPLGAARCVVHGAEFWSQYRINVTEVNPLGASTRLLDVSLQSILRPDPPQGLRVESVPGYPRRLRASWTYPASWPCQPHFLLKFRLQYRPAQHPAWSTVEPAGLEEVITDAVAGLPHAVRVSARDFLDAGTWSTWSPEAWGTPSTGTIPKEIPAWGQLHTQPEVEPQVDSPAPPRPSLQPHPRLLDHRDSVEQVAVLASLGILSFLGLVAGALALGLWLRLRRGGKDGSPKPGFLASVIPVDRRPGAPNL
Description: (§1) Recombinant IL-11Rα vascular endothelial growth factor receptor-1 (VEGFR1) or leptin receptor (OB—R) were incubated with phage displaying the […] (SEQ ID NO:37) peptide. VEGFR1 was used as a representative vascular receptor, while OB—R was used because it shares a co-receptor with IL-11Rα. An unrelated phage clone displaying the peptide […] (SEQ ID NO:38) and insertless fd-tet phage were used as controls. […] Binding of […] (SEQ ID NO:37)-phage to IL-11Rα was specific, since it was inhibited by the native IL-11 ligand in a concentration-dependent manner (not shown). […] These observations with normal prostate tissues were followed by an examination of the expression of IL-11Rα in tumors, as discussed in the present Example.

leptin receptor (OB—R) = leptin receptor (OB—R) (Homo sapiens, UniProt P48357); assay: as above; settings: recombinant OB—R
leptin receptor (OB—R), sequence (P48357 22-1165, species assumed): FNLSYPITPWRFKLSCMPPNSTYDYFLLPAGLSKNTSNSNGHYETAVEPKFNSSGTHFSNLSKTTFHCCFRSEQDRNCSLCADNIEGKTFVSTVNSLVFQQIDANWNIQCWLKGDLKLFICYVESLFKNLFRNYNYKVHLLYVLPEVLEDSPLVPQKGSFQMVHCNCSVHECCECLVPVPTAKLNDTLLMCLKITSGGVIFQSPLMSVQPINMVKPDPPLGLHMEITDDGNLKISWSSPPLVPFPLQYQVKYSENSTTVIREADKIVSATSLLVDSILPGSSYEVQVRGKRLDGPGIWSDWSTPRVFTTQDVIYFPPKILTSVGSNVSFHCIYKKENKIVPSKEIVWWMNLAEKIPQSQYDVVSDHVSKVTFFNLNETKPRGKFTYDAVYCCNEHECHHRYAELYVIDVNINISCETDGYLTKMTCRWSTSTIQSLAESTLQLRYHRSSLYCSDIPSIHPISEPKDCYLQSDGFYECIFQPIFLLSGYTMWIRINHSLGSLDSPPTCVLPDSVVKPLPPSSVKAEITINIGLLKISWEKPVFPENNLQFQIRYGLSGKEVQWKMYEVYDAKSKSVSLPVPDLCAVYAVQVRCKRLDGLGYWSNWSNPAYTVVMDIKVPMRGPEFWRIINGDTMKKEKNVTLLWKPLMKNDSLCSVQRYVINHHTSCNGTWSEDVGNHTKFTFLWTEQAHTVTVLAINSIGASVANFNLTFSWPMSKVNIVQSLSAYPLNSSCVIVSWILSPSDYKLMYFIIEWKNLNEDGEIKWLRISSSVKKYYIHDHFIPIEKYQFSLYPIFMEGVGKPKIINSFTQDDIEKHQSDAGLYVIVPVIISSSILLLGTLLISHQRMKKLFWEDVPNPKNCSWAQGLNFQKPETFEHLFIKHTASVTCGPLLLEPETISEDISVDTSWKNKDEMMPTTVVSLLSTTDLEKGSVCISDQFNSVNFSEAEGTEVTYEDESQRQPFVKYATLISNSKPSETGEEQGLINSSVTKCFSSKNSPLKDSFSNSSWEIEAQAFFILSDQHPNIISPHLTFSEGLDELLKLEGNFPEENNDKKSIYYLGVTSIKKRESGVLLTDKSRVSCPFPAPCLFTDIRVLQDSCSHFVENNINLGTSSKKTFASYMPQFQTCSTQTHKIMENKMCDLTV
Description: as §1

[1] = biological target: vascular endothelial growth factor receptor-1 (VEGFR1) (Homo sapiens, UniProt P17948); assay: as above; settings: recombinant VEGFR1
vascular endothelial growth factor receptor-1 (VEGFR1), sequence (P17948 27-1338, species assumed): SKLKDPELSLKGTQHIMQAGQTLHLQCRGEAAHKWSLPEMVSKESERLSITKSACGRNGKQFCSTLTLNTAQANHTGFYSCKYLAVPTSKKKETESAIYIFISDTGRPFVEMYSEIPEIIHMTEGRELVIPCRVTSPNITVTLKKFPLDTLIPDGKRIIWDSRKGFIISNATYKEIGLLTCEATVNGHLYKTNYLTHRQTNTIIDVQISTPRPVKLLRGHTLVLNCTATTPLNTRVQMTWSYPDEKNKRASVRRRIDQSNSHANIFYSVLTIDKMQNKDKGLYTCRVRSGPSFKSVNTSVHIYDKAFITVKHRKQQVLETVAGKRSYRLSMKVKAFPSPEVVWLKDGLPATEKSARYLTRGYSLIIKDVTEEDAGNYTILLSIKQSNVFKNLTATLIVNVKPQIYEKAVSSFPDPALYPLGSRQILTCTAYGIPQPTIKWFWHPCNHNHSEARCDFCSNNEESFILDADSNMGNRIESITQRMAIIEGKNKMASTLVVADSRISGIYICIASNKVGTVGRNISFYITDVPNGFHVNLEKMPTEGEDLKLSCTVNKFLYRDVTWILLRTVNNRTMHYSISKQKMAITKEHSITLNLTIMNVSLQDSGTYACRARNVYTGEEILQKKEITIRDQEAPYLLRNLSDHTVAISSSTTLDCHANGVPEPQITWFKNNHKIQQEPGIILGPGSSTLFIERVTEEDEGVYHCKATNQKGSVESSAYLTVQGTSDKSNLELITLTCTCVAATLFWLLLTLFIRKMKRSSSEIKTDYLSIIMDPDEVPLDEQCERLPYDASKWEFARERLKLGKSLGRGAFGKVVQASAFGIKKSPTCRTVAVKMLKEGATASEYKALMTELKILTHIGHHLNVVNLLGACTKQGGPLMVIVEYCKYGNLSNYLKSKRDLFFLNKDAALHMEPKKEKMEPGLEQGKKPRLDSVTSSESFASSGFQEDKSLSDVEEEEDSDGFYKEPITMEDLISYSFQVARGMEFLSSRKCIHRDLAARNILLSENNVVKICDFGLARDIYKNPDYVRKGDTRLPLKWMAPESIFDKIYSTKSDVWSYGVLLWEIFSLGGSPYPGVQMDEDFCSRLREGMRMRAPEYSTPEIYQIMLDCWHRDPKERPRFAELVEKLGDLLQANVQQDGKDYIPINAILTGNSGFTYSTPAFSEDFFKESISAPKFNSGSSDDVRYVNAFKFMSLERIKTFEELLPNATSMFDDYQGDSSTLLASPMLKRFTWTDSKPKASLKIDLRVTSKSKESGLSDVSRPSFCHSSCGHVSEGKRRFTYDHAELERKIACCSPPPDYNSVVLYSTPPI
Description: as §1

normal prostate = assay: Phage overlay assay on human tissue sections; assay type: binding
Source text: (§2) To test the tissue specificity of the IL-11 peptide mimic, a phage overlay assay was developed to evaluate receptor-ligand interactions in tissue sections, using the motif RRAGGS (SEQ ID NO:34) (Arap et al., Nature Med. 8:121-127, 2002).

[2] = system: immunoglobulins from the serum of metastatic prostate cancer patients; assay: Biopanning of CX6C phage library on IgGs from serum of prostate cancer patients A, B, C; assay type: binding, human; settings: second and third rounds; patient A, B or C that yielded the peptide
Source text: Sera was selected from patients diagnosed with androgen-dependent and androgen-independent prostate cancer. A CX6C peptide library was screened against this pool of IgGs in a two-step procedure. First, the peptide library was pre-cleared against a pool of purified IgGs from normal serum samples using Protein G affinity chromatography. This step removed peptides from the phage display library that bound to immunoglobulins from patients without prostate cancer. Next, the pre-cleared peptide library was screened against the pool of purified IgGs from the serum of prostate cancer patients. This step selected peptides binding specifically to IgGs elicited against prostate cancer.
A 6-mer cyclic peptide (CX6C) phage display library was used for the biopanning. To select peptides specific to the serum antibodies of cancer patients, a pre-clearing stage was employed to remove non-specific peptides by pre-absorbing the peptide library onto purified IgGs from pooled normal serum (five healthy male individuals). The pre-cleared peptide library was screened onto the purified IgGs from the serum of prostate cancer patients. In brief, 10^9 transducing units (T.U.) of a CX6C cyclic peptide phage library were incubated with IgG antibodies from 50 μl of normal serum immobilized on 50 μl of protein G (Gibco BRL) for 1 hour at 4° C. This was followed by affinity selection on the immobilized IgG antibodies from prostate cancer patient serum for 2 hours at 4° C. Phage peptides specifically bound to IgGs elicited against prostate cancer were eluted with 100 μl of 0.1 M glycine buffer, pH 2.2, neutralized by the addition of 10 μl 1M Tris pH 9.0, and used to infect E. coli strain K91. Ten-fold serial dilutions of the infected solution were spread onto agar plates containing 40 μg/ml of tetracycline and grown overnight. Two hundred colonies were picked, amplified, and precipitated for a subsequent round of panning. A total of three rounds were performed. Individual phage clones were picked for PCR and the insert DNA was sequenced.

[3] = system: serum antibodies of prostate cancer patients; assay: ELISA of serum reactivity against GST-fusion peptides; assay type: binding, human
Description: A 20 μg/ml solution of purified GST or GST-fusion proteins in 0.1M NaHCO3 was used to coat maxisorp multi-well plates (Nalge Nunc International Corporation) and incubated overnight at 4° C. The plates were blocked in a blocking buffer (4% milk, 2% casein, and 0.05% Tween-20) for 3-4 hours. A series of […] dilutions (1:100-1:1200) of sera from prostate cancer patients or healthy individuals was added and incubated for 1.5 hours and then washed five times with washing buffer (1% milk, 0.5% casein, and 0.025% Tween-20), followed by incubation at 4° C. with anti-human alkaline phosphatase-conjugated antibodies (Gibco). The plates were then washed six times in washing buffer and developed using p-NPP (Sigma) as a substrate. An automatic ELISA plate reader (BIO-TEK instrument) recorded the results at OD405 nm.
Probabilities of survival for each group were estimated using the Kaplan-Meier method. A log-rank test was implemented in order to detect significant differences between the groups. Reactivity was considered to be detected if the ratio between GST-peptide and GST alone was greater or equal to two by the ELISA data. A Log-Rank test was used to determine statistical differences between groups. A statistical CART analysis (Classification And Regression Tree) was used to identify the best cut-off point for determining reactivity to GRP78. In this method, the censored survival data were transformed into a single uncensored data value (the so-called “null martingale residual”), which was used as input into a standard regression tree algorithm. A cut-off point of 0.95 was determined by this program

skin = assay: Phage overlay assay on human tissue sections; assay type: binding
Source text: as §2

AGG [tripeptide motif isolated from prostate]
Motif Frequency (prostate): 2.5

CC[C@@]1(O)C(=O)OCc2c1cc1n(c2=O)Cc2cc3c(CN(C)C)c(O)ccc3nc2-1 [topotecan]
reporter gene transduction relative to controls (MDA-MB-435 cells): several fold higher

EGR [tripeptide motif isolated from prostate]
Motif Frequency (prostate): 1.0

TREVHRS [FE]
homing to adipose tissue compared to control fd-tet phage (adipose tissue): some elevation of homing to adipose tissue

KGGRAKD [FA]
homing to adipose tissue compared to control fd-tet phage (adipose tissue): some elevation of homing to adipose tissue

GER [tripeptide motif isolated from prostate]
Motif Frequency (prostate): 0.9

CGRRAGGSC
phage binding to immobilized receptor (IL-11Rα): significant amount of binding
phage binding to immobilized receptor (leptin receptor (OB—R)): Neither OB—R nor VEGFR1 showed binding
phage binding to immobilized receptor [1]: Neither OB—R nor VEGFR1 showed binding

RGEVLWS [FC]
homing to adipose tissue compared to control fd-tet phage (adipose tissue): some elevation of homing to adipose tissue

CRVDFSKGC [reference compound]
phage binding to immobilized receptor (IL-11Rα): Neither of the control phage exhibited selective binding

RRAGGS [prostate-targeting motif, IL-11 peptide mimic]
phage binding to tissue section (normal prostate): specifically bound to the endothelium and epithelium of normal prostate

VMGSVTG [FX]
homing to adipose tissue compared to control fd-tet phage (adipose tissue): some elevation of homing to adipose tissue; also recorded: several orders of magnitude higher adipose localization

GVL [tripeptide motif isolated from prostate]
Motif Frequency (prostate): 2.3

CNVSDKSC
share of the clones analyzed [2]: 55%
positive serum reactivity ([3]; 71 age-matched healthy men (control)): 7%
positive serum reactivity ([3]; metastatic androgen-independent prostate cancer): 76%
positive serum reactivity ([3]; organ-confined prostate cancer patients): 6%
positive serum reactivity ([3]; patients with androgen-dependent tumors): 29%

HGGVG [motif of a control phage that localized to skin tissue, reference compound]
phage binding to tissue section (normal prostate): did not bind to prostate tissue
phage binding to tissue section (skin): specifically recognized blood vessels in the skin

N.N.[Cl][Pt][Cl] [cisplatin]
reporter gene transduction relative to controls (MDA-MB-435 cells): several fold higher

B1: IL-11: native IL-11 ligand, cytokine (protein)
chain: PGPPPGPPRVSPDPRAELDSTVLLTRSLLADTRQLAAQLRDKFPADGDHNLDSLPTLAMSAGALGALQLPGVLTRLRADLLSYLRHVQWLRRAGGSSLKTLEPELGTLQARLDRLLRRLQLLMSRLALPQPPPDPPAPPLAPPSSAWGGIRAAHAILGGLHLTLDWAVRGLLLLKTRL
inhibition of CGRRAGGSC-phage binding to IL-11Rα (IL-11Rα; concentration of about 0.1 nM): ~100%
